Among the data in BindingDB's records for doi:10.1016/S0960-894X(00)80255-3 (1991) are IC50 values, retold here.

The structures appear in SMILES notation. pIC50: −log10 of the molar value.

The target of the experiment is Tyrosine-protein kinase Lck (Homo sapiens, UniProt P06239). Nature of the experiment: ChEBML_210745. An excerpt: Inhibitory concentration against phosphorylation of angiotensin I catalyzed by protein-tyrosine kinase p56lck
Chain of Tyrosine-protein kinase Lck (P06239 whole entry): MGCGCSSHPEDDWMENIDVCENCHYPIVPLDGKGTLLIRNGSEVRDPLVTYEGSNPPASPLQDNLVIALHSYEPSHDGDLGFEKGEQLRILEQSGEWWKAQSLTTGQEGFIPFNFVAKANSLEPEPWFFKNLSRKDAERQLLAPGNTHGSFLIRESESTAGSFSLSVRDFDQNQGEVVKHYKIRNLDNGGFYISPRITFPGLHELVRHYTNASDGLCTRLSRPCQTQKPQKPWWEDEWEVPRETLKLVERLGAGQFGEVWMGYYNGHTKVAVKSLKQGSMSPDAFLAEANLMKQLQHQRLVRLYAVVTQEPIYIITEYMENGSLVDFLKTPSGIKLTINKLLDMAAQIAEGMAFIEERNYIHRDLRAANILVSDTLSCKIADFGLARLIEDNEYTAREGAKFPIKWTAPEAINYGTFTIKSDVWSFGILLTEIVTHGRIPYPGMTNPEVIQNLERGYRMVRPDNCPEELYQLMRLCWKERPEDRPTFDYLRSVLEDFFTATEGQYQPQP
As a reminder, the pIC50 is the IC50 on a negative log10 scale, so that one unit is a factor of ten. Low values mean a large IC50, high ones a small IC50. With `Oc1ccc(Br)cc1CN=Nc1ccccc1` [4-Bromo-2-(phenyl-hydrazonomethyl)-phenol], the negative logarithm of the IC50 (pIC50) was < 2.58.

Consider `c1ccc(N=NCc2ccccn2)cc1` [N-Phenyl-N'-[1-pyridin-2-yl-meth-(E)-ylidene]-hydrazine], for which the pIC50 was < 2.39.

As for `Brc1ccc(N=NCc2cccnc2)cc1` [N-(4-Bromo-phenyl)-N'-[1-pyridin-3-yl-meth-(E)-ylidene]-hydrazine], the pIC50 is < 2.54.

For the compound `Brc1ccc(N=NCc2ccncc2)cc1` [N-(4-Bromo-phenyl)-N'-[1-pyridin-4-yl-meth-(E)-ylidene]-hydrazine], the pIC50 was < 2.54.

In the case of `COc1ccc(N=NCc2cccc(O)c2O)cc1` [3-[(4-Methoxy-phenyl)-hydrazonomethyl]-benzene-1,2-diol], the pIC50 is 3.51.

For the compound `O=[N+]([O-])c1cccc(C/N=N/c2ccccc2)c1` [N-[1-(3-Nitro-phenyl)-meth-(E)-ylidene]-N'-phenyl-hydrazine], the pIC50 was < 2.48.

As for `Brc1ccc(N=NCc2ccccn2)cc1` [N-(4-Bromo-phenyl)-N'-[1-pyridin-2-yl-meth-(E)-ylidene]-hydrazine], the negative logarithm of the IC50 (pIC50) is < 2.54.

As for `c1ccc(N=NCc2ccncc2)cc1` [N-Phenyl-N'-[1-pyridin-4-yl-meth-(E)-ylidene]-hydrazine], the pIC50 is < 2.39.

`COc1ccc(CN=Nc2ccc(Br)cc2)cc1O` [5-[(4-Bromo-phenyl)-hydrazonomethyl]-2-methoxy-phenol]: the pIC50 is < 2.60.

As for `O=[N+]([O-])c1ccc(/N=N\Cc2cccc(O)c2O)c([N+](=O)[O-])c1` [3-[(2,4-Dinitro-phenyl)-hydrazonomethyl]-benzene-1,2-diol], the pIC50 is < 2.60.

`COc1ccc(N=NCc2cc(O)ccc2O)cc1` [2-[(4-Methoxy-phenyl)-hydrazonomethyl]-benzene-1,4-diol] had a negative logarithm of the IC50 (pIC50) of 3.51.

Consider `O=[N+]([O-])c1ccc(C/N=N/c2ccccc2)cc1`, for which the pIC50 was < 2.48.
